Measured values taken from patent US11459313B2, “Aziridinyl and amino dimeric naphthoquinone compounds and use for acute myeloid leukemia” (University of Maryland, Baltimore, priority 2016, dated 2022).
Where two headings read alike, the source gives them in different places. Each block holds one compound with its values, some of them ahead of it.

What was measured:
MOLM-14 cells = experiment: WST-1 cell proliferation assay, MOLM-14; assay type: cell-based, human
Protocol: (§1) Cell lines were seeded into 96-well plates the afternoon prior to treatment. Approximately 18 hours later, bis and mono-aziridine dimeric naphthoquinone compounds were semi-serially diluted in dimethyl sulfoxide (DMSO) and then growth medium, and added to cells. Plates were incubated for 72 hours prior to addition of WST-1 (Promega®). Plates were read after 4 additional hours of incubation at 37° C. using a Bio-Tek Synergy® HT plate reader (Bio-Tek®). Data were analyzed and graphed using GraphPad Prism® Software (Graph Pad®).
(§2) Primary AML cells from patients and cell lines were seeded into 96-well plates the afternoon prior to treatment. Eighteen hours later, amino-dimeric naphthoquinone Compounds 106, 101, and 114 were semi-serially diluted in dimethyl sulfoxide (DMSO) and then growth medium, and added to the cells. In order to quantitate proliferation of metabolically active cells, plates were incubated for 72 hours for cell lines and 48 hours for primary AML cells prior to addition of water-soluble tetrazolium (WST-1) (Clontech®). Plates were read after four additional hours of incubation at 37° C. using a Bio-Tek Synergy® HT plate reader (Bio-Tele®). Data were analyzed and graphed using GraphPad Prism® Software (GraphPad®). IC50 was defined as the concentration that decreases viable cell numbers by 50%. IC50 values were calculated as mean±standard deviation from at least two independent experiments. If availability of primary blasts was limited, the IC50 was obtained from a single experiment.
To investigate antiproliferative activity of amino-dimeric naphthoquinones against AML cells, an MTT-like cell proliferation assay was performed in the AML cell lines using WST-1 (water soluble tetrazolium salts; Promega®). MOLM-14 and AML-D cells, as well as normal hematopoietic bone marrow cells from a healthy donor, were exposed to a range of concentrations of Compound 101. Human leukemia cells were cultured in the presence of the compound for 72 hours (48 hours for primary cells) and WST-1 reagent was then added. The cells then were monitored for cell growth or the number of cells proliferating and the IC50 calculated. The IC50 is the concentration at which 50% of the cells are not proliferating compared to control cells treated with vehicle. See FIG. 2A, FIG. 2B, and FIG. 2C for representative graphs of these IC50 determinations.

MV4-11 cells = experiment: WST-1 cell proliferation assay, MV4-11; assay type: cell-based, human
Protocol: as §1, §2

THP-1 cells = experiment: WST-1 cell proliferation assay, THP-1; assay type: cell-based; settings: Homo sapiens
Protocol: as §1, §2

[1] = Table 1, cell proliferation, read-out: MOLM14 IC50
[2] = Table 1, cell proliferation, read-out: MV411 IC50
[3] = Homo sapiens, MOLM-14, Table 1, cell proliferation, read-out: MOLM14 IC50
[4] = Homo sapiens, MOLM-14, Table 7, cell proliferation, read-out: IC50 (μM) MOLM-14
[5] = Homo sapiens, MV4-11, Table 1, cell proliferation, read-out: MV411 IC50
[6] = Homo sapiens, MV4-11, Table 7, cell proliferation, read-out: IC50 (μM) MV411
[7] = Homo sapiens, MOLM-14, Table 9, cell proliferation, read-out: IC50 (μM) MOLM-14
[8] = Homo sapiens, MV4-11, Table 9, cell proliferation, read-out: IC50 (μM) MV411
[9] = Homo sapiens, MOLM-14, Table 3, cell proliferation, read-out: MOLM14 IC50
[10] = Homo sapiens, MV4-11, Table 3, cell proliferation, read-out: MV411 IC50
[11] = Homo sapiens, MOLM-14, Table 2, cell proliferation, read-out: MOLM14 IC50
[12] = Homo sapiens, MV4-11, Table 2, cell proliferation, read-out: MV411 IC50
[13] = Table 2, cell proliferation, read-out: MOLM14 IC50
[14] = Table 2, cell proliferation, read-out: MV411 IC50

Compound: 3-chloro-3′-(4-hydroxypiperidinyl)-2,2′-binaphthalenyl-1,1′,4,4′-tetrone [Compound 127]
- IC50 (MOLM-14 cells; [1]): 3.6 ± 0.63 µM
- IC50 (MV4-11 cells; [2]): 2.1 ± 0.56 µM

Compound: 3-chloro-3′-hydroxy dimeric naphthoquinone [Compound 144, reference compound]
- IC50 (MOLM-14 cells; [1]): 6.5 ± 0.28 µM
- IC50 (MOLM-14 cells; Table 7, cell proliferation, read-out: IC50 (μM) MOLM-14): 6.3 µM
- IC50 (MV4-11 cells; [2]): 3 ± 0.07 µM
- IC50 (MV4-11 cells; Table 7, cell proliferation, read-out: IC50 (μM) MV411): 3 µM

Compound: COc1ccc2c(c1)C(=O)C(NCCO)=C(C1=C(NCCO)C(=O)c3ccccc3C1=O)C2=O [Compound 104, 3,3′-bis(2-hydroxyethylamino)-6-methoxy-2,2′-binaphthalenyl-1,1′,4,4′-tetrone]
- IC50 (MOLM-14 cells; [9]): 0.37 ± 0.17 µM
- IC50 (MOLM-14 cells; [7]): 1.32 ± 0.23 µM
- IC50 (MV4-11 cells; [10]): 1.16 ± 0.2 µM
- IC50 (MV4-11 cells; [8]): 2.05 ± 0.4 µM

Compound: O=C1C(Cl)=C(C2=C(N3CC3)C(=O)c3ccccc3C2=O)C(=O)c2ccccc21 [Compound 106, 3-(aziridin-1-yl)-3′-chloro-[2,2′-binaphthalene]-1,1′ 4,4′-tetrone]
- IC50 (MOLM-14 cells; Homo sapiens, MOLM-14, read-out: IC50 MOLM-14): 3.9 ± 1 µM
- IC50 (MOLM-14 cells; Homo sapiens, MOLM-14, read-out: IC50 MOLM-14 (n)): 3.9 ± 1 µM
- IC50 (THP-1 cells; THP-1, read-out: IC50 THP1 (n)): 7700 ± 1300 nM
- IC50 (THP-1 cells; THP-1, read-out: IC50 THP-1): 7700 ± 1300 nM

Compound: CC(O)CNC1=C(C2=C(NCC(C)O)C(=O)c3ccccc3C2=O)C(=O)c2ccccc2C1=O (stereo not shown) [Compound 112]
- IC50 (MOLM-14 cells; [9]): 1.49 ± 0.46 µM
- IC50 (MV4-11 cells; [10]): 3.94 ± 2.23 µM

Compound: O=C1C(C2=C(N3CCC(O)CC3)C(=O)c3ccccc3C2=O)=C(N2CCC(O)CC2)C(=O)c2ccccc21 [Compound 117]
- IC50 (MOLM-14 cells; [7]): 4.3 ± 2.1 µM
- IC50 (MV4-11 cells; [8]): 2.5 µM

Compound: CN(C)C1=C(C2=C(N(C)C)C(=O)c3ccccc3C2=O)C(=O)c2ccccc2C1=O [Compound 120, 3,3′-bis-(2-dimethylamino)-2,2′-biuaphthalenyl-1,1′,4,4′-tetrone]
- IC50 (MOLM-14 cells; [11]): 2.8 ± 0.91 µM
- IC50 (MOLM-14 cells; [4]): 2.9 µM
- IC50 (MV4-11 cells; [12]): 2.15 ± 0.64 µM
- IC50 (MV4-11 cells; [6]): 2.4 µM

Compound: O=C1C(NCCO)=C(C2=C(NCCO)C(=O)c3cc(F)ccc3C2=O)C(=O)c2ccccc21 [Compound 105, 3,3′-bis(2-hydroxyethylamino)-6-fluoro-2,2′-binaphthyl-1,1′,4,4′-tetrone]
- IC50 (MOLM-14 cells; [9]): 1.3 ± 0.23 µM
- IC50 (MV4-11 cells; [10]): 2.05 ± 0.4 µM

Compound: COCCN(C)C1=C(C2=C(N(C)CCOC)C(=O)c3ccccc3C2=O)C(=O)c2ccccc2C1=O [Compound 108, 3,3′-bis-[(2-methoxyethyl)(N-methyl)amino]-2,2′-binaphthalenyl-1,1′,4,4′-tetrone]
- IC50 (MOLM-14 cells; [9]): 5.55 ± 0.78 µM
- IC50 (MOLM-14 cells; [4]): 6.1 µM
- IC50 (MV4-11 cells; [10]): 5.5 ± 0.71 µM
- IC50 (MV4-11 cells; [6]): 6 µM

Compound: CN(CCO)C1=C(C2=C(N(C)CCO)C(=O)c3ccccc3C2=O)C(=O)c2ccccc2C1=O [Compound 118]
- IC50 (MOLM-14 cells; [7]): 5.8 ± 0.6 µM
- IC50 (MV4-11 cells; [8]): 5.25 ± 0.3 µM

Compound: O=C1C(C2=C(N3CCN(CCO)CC3)C(=O)c3ccccc3C2=O)=C(N2CCN(CCO)CC2)C(=O)c2ccccc21 [Compound 116]
- IC50 (MOLM-14 cells; [7]): 1.17 µM
- IC50 (MV4-11 cells; [8]): 1.65 µM

Compound: CC(=O)OCCNC1=C(C2=C(NCCOC(C)=O)C(=O)c3ccccc3C2=O)C(=O)c2ccccc2C1=O [Compound 119]
- IC50 (MOLM-14 cells; [7]): 1 µM
- IC50 (MV4-11 cells; [8]): 2.2 ± 0.7 µM

Compound: CN(CCO)C1=C(C2=C(N(C)CCO)C(=O)c3ccccc3C2=O)C(=O)c2ccccc2C1=O [Compound 107, 3,3′-bis-[(2-hydroxyethyl)(N-methyl)amino]-2,2′-binaphthalenyl-1,1′,4,4′-tetrone]
- IC50 (MOLM-14 cells; [9]): 5.85 ± 0.64 µM
- IC50 (MOLM-14 cells; [4]): 6.3 µM
- IC50 (MV4-11 cells; [10]): 5.25 ± 0.35 µM
- IC50 (MV4-11 cells; [6]): 5 µM

Compound: CN(C)C1=C(C2=C(N(C)C)C(=O)c3ccccc3C2=O)C(=O)c2ccccc2C1=O [Compound 114, 3,3′-bis(dimethylamino)-[2,2′-binaphthalene]-1,1′,4,4′-tetrone]
- IC50 (MV4-11 cells; Homo sapiens, MV4-11, Example 5 text, unit inferred, read-out: IC50 against MV4-11): 2.4 ± 0.3 µM

Compound: CN(C)CCNC1=C(C2=C(NCCN(C)C)C(=O)c3ccccc3C2=O)C(=O)c2ccccc2C1=O [Compound 103, 3,3′-bis({[2-(dimethylamino)ethyl]amino})-[2,2′-binaphthalene]-1,1′,4,4′-tetrone]
- IC50 (MOLM-14 cells; [11]): 0.12 µM
- IC50 (MV4-11 cells; [12]): 0.49 µM

Compound: O=C1C(C2=C(N3CCN(CCOCCO)CC3)C(=O)c3ccccc3C2=O)=C(N2CCN(CCOCCO)CC2)C(=O)c2ccccc21 [Compound 110, 3,3′-bis(4-(2-(2-hydroxyethoxy)ethyl)piperazin-1-yl)-[2,2′-binaphthalene]-1,1′,4,4′-tetrone]
- IC50 (MOLM-14 cells; [9]): 1.9 ± 0.32 µM
- IC50 (MV4-11 cells; [10]): 140 ± 0.91 µM

Compound: O=C1C(NCCO)=C(C2=C(NCCO)C(=O)c3ccccc3C2=O)C(=O)c2ccccc21 [Compound 115]
- IC50 (MOLM-14 cells; [7]): 0.15 ± 0.01 µM
- IC50 (MV4-11 cells; [8]): 0.2 ± 0.02 µM

Compound: CC(=O)OCCNC1=C(C2=C(NCCOC(C)=O)C(=O)c3ccccc3C2=O)C(=O)c2ccccc2C1=O [Compound 109, 3,3′bis-[(2-acyloxyethyl)amino]-2,2′-binaphthalenyl-1, -1′,4,4′-tetrone]
- IC50 (MOLM-14 cells; [9]): 1 µM
- IC50 (MV4-11 cells; [10]): 2.2 ± 0.74 µM

Next, values leading:

- IC50 (MOLM-14 cells; [3]): 0.85 ± 0.25 µM
- IC50 (MOLM-14 cells; [4]): 0.6 µM
- IC50 (MV4-11 cells; [5]): 0.76 ± 0.36 µM
- IC50 (MV4-11 cells; [6]): 0.5 µM
Compound: O=C1C(Cl)=C(C2=C(N3CCN(CCO)CC3)C(=O)c3ccccc3C2=O)C(=O)c2ccccc21 [Compound 126, 3-chloro-3′-[(4-hydroxyethyl)piperazinyl]-2,2′-binaphthalenyl-1,1′,4,4′-tetrone]

- IC50 (MOLM-14 cells; [4]): 7.1 µM
- IC50 (MV4-11 cells; [6]): 5 µM
Compound: O=C1C(Cl)=C(C2=C(Cl)C(=O)c3cc(Br)ccc3C2=O)C(=O)c2ccccc21 [Compound 139]

- IC50 (MOLM-14 cells; [7]): 0.37 ± 0.17 µM
- IC50 (MV4-11 cells; [8]): 1.16 ± 0.2 µM
Compound: O=C1C(NCCO)=C(C2=C(NCCO)C(=O)c3cc(F)ccc3C2=O)C(=O)c2ccccc21 [Compound 137]

- IC50 (MOLM-14 cells; [7]): 2.8 ± 0.9 µM
- IC50 (MV4-11 cells; [8]): 2.2 ± 0.6 µM
Compound: CN(C)C1=C(C2=C(N(C)C)C(=O)c3ccccc3C2=O)C(=O)c2ccccc2C1=O [Compound 135]

- IC50 (MOLM-14 cells; [3]): 2.2 µM
- IC50 (MOLM-14 cells; [4]): 2.2 µM
- IC50 (MV4-11 cells; [5]): 1.2 µM
- IC50 (MV4-11 cells; [6]): 1.2 µM
Compound: O=C1C(Cl)=C(C2=C(NCCO)C(=O)c3ccccc3C2=O)C(=O)c2ccccc21 [Compound 125, 3-chloro-3′-[(2-hydroxyethyl)amino]-2,2′-binaphthalenyl-1,1′,4,4′-tetrone]

- IC50 (MOLM-14 cells; [3]): 2.8 ± 0.01 µM
- IC50 (MOLM-14 cells; [4]): 2.8 µM
- IC50 (MV4-11 cells; [5]): 1.3 ± 1 µM
- IC50 (MV4-11 cells; [6]): 1.3 µM
Compound: CN(C)CCN(C)C1=C(C2=C(Cl)C(=O)c3ccccc3C2=O)C(=O)c2ccccc2C1=O [Compound 124, 3-chloro-3′((2-(dimethylamino)ethyl)(methyl)amino)-[2,2′-binaphthalene]-1,1′,4,4′-tetrone]

- IC50 (MOLM-14 cells; [13]): 4.3 ± 2.12 µM
- IC50 (MV4-11 cells; [14]): 2.5 µM
Compound: O=C1C(C2=C(N3CCC(O)CC3)C(=O)c3ccccc3C2=O)=C(N2CCC(O)CC2)C(=O)c2ccccc21 [Compound 122, 3,3′-bis-(4-hydroxypiperidinyl)-2,2′-binaphthalenyl-1,1′,4,4′-tetrone]

- IC50 (MOLM-14 cells; [3]): 3 ± 1.42 µM
- IC50 (MOLM-14 cells; [4]): 3 µM
- IC50 (MV4-11 cells; [5]): 2.4 ± 2 µM
- IC50 (MV4-11 cells; [6]): 2.4 µM
Compound: CN(C)C1=C(C2=C(Cl)C(=O)c3ccccc3C2=O)C(=O)c2ccccc2C1=O [Compound 123, 3-chloro-3′-(dimethylamino)-2,2′-binaphthalenyl-1,1′,4,4′-tetrone]

- IC50 (MOLM-14 cells; [13]): 1.17 µM
- IC50 (MV4-11 cells; [14]): 1.65 µM
Compound: O=C1C(C2=C(N3CCN(CCO)CC3)C(=O)c3ccccc3C2=O)=C(N2CCN(CCO)CC2)C(=O)c2ccccc21 [Compound 121, 3,3′-bis[4-(2-hydroxyethyl)piperazin-1-yl]-4a,5a-dihydro-[2,2′-binaphthalene]-1,1′,4,4′-tetrone]
